According to ChEMBL document CHEMBL5625227, “Discovery and optimization of 2,3-diaryl-1,3-thiazolidin-4-one-based derivatives as potent and selective cytotoxic agents with anti-inflammatory activity” (Eur J Med Chem, 2023):
Calls of active or inactive are those of the source. No cut-off for these calls is given here.

How the values were obtained:
Rattus norvegicus [1] = assay: Antiinflammatory activity against carrageenan-induced paw edema Sprague-Dawley rat model assessed as inhibition of paw edema by measuring edema thickness at 50 mg/kg, po measured after 1 hr (reference value: 0.71 +/- 0.03 mm); format: functional
Rattus norvegicus [2] = assay: Antiinflammatory activity against carrageenan-induced paw edema Sprague-Dawley rat model assessed as inhibition of paw edema by measuring edema thickness at 50 mg/kg, po measured after 3 hrs (reference value: 1.41 +/- 0.13 mm); format: functional
Rattus norvegicus [3] = assay: Antiinflammatory activity against carrageenan-induced paw edema Sprague-Dawley rat model assessed as inhibition of paw edema by measuring edema thickness at 50 mg/kg, po measured after 5 hrs (reference value: 1.39 +/- 0.11 mm); format: functional
Rattus norvegicus [4] = assay: Antiinflammatory activity against carrageenan-induced paw edema Sprague-Dawley rat model assessed as inhibition of inflammation at 50 mg/kg, po after 1 hr relative to control; format: functional; design: scale not given: the % may be the effect or the level left
[5] = Acute ulcerogenic activity in Sprague-Dawley male rat assessed as incidence of ulcer/10 animal at 50 mg/kg/day, po administered for 3 days; format: toxicity, organism-based; conditions: in vivo, 72 h, time 3 day
[6] = Acute ulcerogenic activity in Sprague-Dawley male rat assessed as average number of ulcers at 50 mg/kg/day, po administered for 3 days; format: toxicity, organism-based; conditions: in vivo, 72 h, time 3 day
[7] = Acute ulcerogenic activity in Sprague-Dawley male rat assessed as average severity of ulcers at 50 mg/kg/day, po administered for 3 days; format: toxicity, organism-based; conditions: in vivo, 72 h, time 3 day
[8] = Acute ulcerogenic activity in Sprague-Dawley male rat assessed as ulcer index at 50 mg/kg/day, po administered for 3 days; format: toxicity, organism-based; conditions: in vivo, 72 h, time 3 day
[9] = Acute ulcerogenic activity in Sprague-Dawley male rat assessed as abnormal structure of the gastric layer by measuring deeply congested blood vessels and aggregated of inflammatory cells at 50 mg/kg/day, po administered for 3 days by hematoxylin and eosin staining method; format: toxicity, organism-based, Stomach; conditions: in vivo, 72 h, time 3 day
[10] = Acute ulcerogenic activity in Sprague-Dawley male rat assessed as abnormal structure of the gastric layer by measuring inflammatory cells infiltration in lamina propria at 50 mg/kg/day, po administered for 3 days by hematoxylin and eosin staining method; format: toxicity, organism-based, Stomach; conditions: in vivo, 72 h, time 3 day
[11] = Acute ulcerogenic activity in Sprague-Dawley male rat assessed as abnormal structure of the gastric layer by measuring infiltration of lymphocytes in lamina propria at 50 mg/kg/day, po administered for 3 days by hematoxylin and eosin staining method; format: toxicity, organism-based, Stomach; conditions: in vivo, 72 h, time 3 day
[12] = Acute ulcerogenic activity in Sprague-Dawley male rat assessed as abnormal structure of the gastric layer by measuring infiltration of macrophages in lamina propria at 50 mg/kg/day, po administered for 3 days by hematoxylin and eosin staining method; format: toxicity, organism-based, Stomach; conditions: in vivo, 72 h, time 3 day
[13] = Acute ulcerogenic activity in Sprague-Dawley male rat assessed as abnormal structure of the gastric layer by measuring infiltration of lymphocytes in submucosa at 50 mg/kg/day, po administered for 3 days by hematoxylin and eosin staining method; format: toxicity, organism-based, Stomach; conditions: in vivo, 72 h, time 3 day
[14] = Acute ulcerogenic activity in Sprague-Dawley male rat assessed as abnormal structure of the gastric layer by measuring infiltration of macrophages in submucosa at 50 mg/kg/day, po administered for 3 days by hematoxylin and eosin staining method; format: toxicity, organism-based, Stomach; conditions: in vivo, 72 h, time 3 day
[15] = Acute ulcerogenic activity in Sprague-Dawley male rat assessed as abnormal structure of the gastric layer by measuring glandular hyperactivation in submucosa at 50 mg/kg/day, po administered for 3 days by hematoxylin and eosin staining method; format: toxicity, organism-based, Stomach; conditions: in vivo, 72 h, time 3 day
MCF7 = assay: Cytotoxicity against human MCF7 cells assessed as inhibition in cell growth incubated for 72 hrs by MTT assay; format: functional, cell-based; conditions: MCF7, 72 h
HT-29 [16] = assay: Cytotoxicity against human HT-29 cells assessed as inhibition in cell growth incubated for 72 hrs by MTT assay; format: functional, cell-based; conditions: HT-29, 72 h
A2780 = assay: Cytotoxicity against human A2780 cells assessed as inhibition in cell growth incubated for 72 hrs by MTT assay; format: functional, cell-based; conditions: A2780, 72 h
[17] = Cytotoxicity against human MRC5 cells assessed as inhibition in cell growth incubated for 72 hrs by MTT assay; format: toxicity, cell-based
[18] = Selectivity index, ratio of IC50 for cytotoxicity against human MRC5 cells to IC50 for cytotoxicity against human MCF7 cells; conditions: MRC5 cells versus MCF7 cells
[19] = Selectivity index, ratio of IC50 for cytotoxicity against human MRC5 cells to IC50 for cytotoxicity against human HT-29 cells; conditions: MRC5 cells versus HT-29 cells
[20] = Selectivity index, ratio of IC50 for cytotoxicity against human MRC5 cells to IC50 for cytotoxicity against human A2780 cells; conditions: MRC5 cells versus A2780 cells
[21] = molecular target: T1, Prostaglandin G/H synthase 1 (Ovis aries, UniProt P05979); assay: Inhibition of ovine COX-1
T1 sequence (P05979 whole entry): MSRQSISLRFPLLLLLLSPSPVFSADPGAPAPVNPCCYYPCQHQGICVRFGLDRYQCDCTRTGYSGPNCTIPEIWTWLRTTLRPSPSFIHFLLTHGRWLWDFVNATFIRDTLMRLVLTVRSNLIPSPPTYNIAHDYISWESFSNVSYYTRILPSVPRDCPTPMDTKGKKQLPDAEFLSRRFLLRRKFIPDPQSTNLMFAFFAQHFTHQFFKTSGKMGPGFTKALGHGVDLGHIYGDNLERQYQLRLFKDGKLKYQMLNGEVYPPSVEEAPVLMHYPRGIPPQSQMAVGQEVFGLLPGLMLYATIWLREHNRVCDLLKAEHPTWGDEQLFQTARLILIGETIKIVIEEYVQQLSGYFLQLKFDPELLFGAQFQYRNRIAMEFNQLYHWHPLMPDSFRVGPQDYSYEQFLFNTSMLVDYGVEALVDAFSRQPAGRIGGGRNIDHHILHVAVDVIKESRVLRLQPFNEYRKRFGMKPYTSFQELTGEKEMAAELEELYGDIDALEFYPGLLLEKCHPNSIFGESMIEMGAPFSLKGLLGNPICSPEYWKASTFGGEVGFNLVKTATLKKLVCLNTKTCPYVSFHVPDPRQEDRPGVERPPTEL

Rattus norvegicus [22] = assay: Antiinflammatory activity against carrageenan-induced paw edema Sprague-Dawley rat model assessed as inhibition of inflammation at 50 mg/kg, po after 3 hrs relative to control; format: functional; design: scale not given: the % may be the effect or the level left
Rattus norvegicus [23] = assay: Antiinflammatory activity against carrageenan-induced paw edema Sprague-Dawley rat model assessed as inhibition of inflammation at 50 mg/kg, po after 5 hrs relative to control; format: functional; design: scale not given: the % may be the effect or the level left
[24] = Acute ulcerogenic activity in Sprague-Dawley male rat assessed as nonactivated glands in intact mucosa at 50 mg/kg/day, po administered for 3 days by hematoxylin and eosin staining method; format: toxicity, organism-based, Stomach; conditions: in vivo, 72 h, time 3 day
[25] = Acute ulcerogenic activity in Sprague-Dawley male rat assessed as congestion in intact mucosa at 50 mg/kg/day, po administered for 3 days by hematoxylin and eosin staining method; format: toxicity, organism-based, Stomach; conditions: in vivo, 72 h, time 3 day
[26] = Acute ulcerogenic activity in Sprague-Dawley male rat by measuring filtration of inflammatory cells in edema at 50 mg/kg/day, po administered for 3 days by hematoxylin and eosin staining method; format: toxicity, organism-based, Stomach; conditions: in vivo, 72 h, time 3 day
HT-29 [27] = assay: Anticlonogenic activity against human HT-29 cells assessed as reduction in number of colonies at 0.25 uM incubated for 24 hrs by clonogenic survival assay; format: functional, cell-based
Ehrlich [28] = assay: Antitumor activity against mouse Ehrlich solid carcinoma cells bearing adult male swiss albino mouse assessed as decrease in tumor volume at 50 mg/kg, po administered every other day and observed at 9 days; format: functional, organism-based; conditions: time 9.0 day
Ehrlich [29] = assay: Antitumor activity against mouse Ehrlich solid carcinoma cells bearing adult male swiss albino mouse assessed as decrease in tumor volume at 50 mg/kg, po administered every other day and observed at 13 days; format: functional, organism-based; conditions: time 13.0 day
Ehrlich [30] = assay: Antitumor activity against mouse Ehrlich solid carcinoma cells bearing adult male swiss albino mouse assessed as decrease in tumor volume at 50 mg/kg, po administered every other day and observed at 5 days; format: functional, organism-based; conditions: time 5.0 day
Ehrlich [31] = assay: Antitumor activity against mouse Ehrlich solid carcinoma cells bearing adult male swiss albino mouse assessed as tumor growth inhibition at 50 mg/kg, po administered every other day and observed at 13 days relative to control; format: functional; conditions: 312 h, time 13 day, read-out: TGI
Ehrlich [32] = assay: Antitumor activity against mouse Ehrlich solid carcinoma cells bearing adult male swiss albino mouse assessed as decrease in tumor weight at 50 mg/kg, po administered every other day and observed at 14 days; format: functional, organism-based; conditions: time 14.0 day
HT-29 [33] = assay: Anti-migration activity in human HT-29 cells assessed as suppression in cell migration at 0.250 uM incubated 48 hrs by wound-healing assay; format: functional, cell-based; conditions: dose 0.25 µM
HT-29 [34] = assay: Induction of apoptosis in human HT-29 cells assessed as accumulation of cells at viable stage at 0.25 uM incubated for 24 hrs by Annexin V-FITC/propidium iodide staining based flow cytometry analysis (Rvb=91.7%); format: functional
HT-29 [35] = assay: Induction of apoptosis in human HT-29 cells assessed as accumulation of cells at early apoptotic stage at 0.25 uM incubated for 24 hrs by Annexin V-FITC/propidium iodide staining based flow cytometry analysis (reference value: 0.1%); format: functional
HT-29 [36] = assay: Induction of apoptosis in human HT-29 cells assessed as accumulation of cells at late apoptotic stage at 0.25 uM incubated for 24 hrs by Annexin V-FITC/propidium iodide staining based flow cytometry analysis (reference value: 0.2%); format: functional
HT-29 [37] = assay: Induction of apoptosis in human HT-29 cells assessed as accumulation of cells at necrotic stage at 0.25 uM incubated for 24 hrs by Annexin V-FITC/propidium iodide staining based flow cytometry analysis (reference value: 8.1%); format: functional
Sus scrofa = organism: Sus scrofa; assay: Inhibition of porcine brain tubulin polymerization at 1 uM by fluorescence-based tubulin polymerization assay
[38] = Acute ulcerogenic activity in Sprague-Dawley male rat assessed as change in normal lamina propria at 50 mg/kg/day, po administered for 3 days by hematoxylin and eosin staining method; format: toxicity, organism-based, Stomach; conditions: in vivo, 72 h, time 3 day
[39] = Acute ulcerogenic activity in Sprague-Dawley male rat assessed as change in normal glands at 50 mg/kg/day, po administered for 3 days by hematoxylin and eosin staining method; format: toxicity, organism-based, Stomach; conditions: in vivo, 72 h, time 3 day
[40] = Acute ulcerogenic activity in Sprague-Dawley male rat assessed as change in normal keratin at 50 mg/kg/day, po administered for 3 days by hematoxylin and eosin staining method; format: toxicity, organism-based, Stomach; conditions: in vivo, 72 h, time 3 day

SMILES	IC50 [21]	Activity (Rattus norvegicus [1])	Activity (Rattus norvegicus [2])	Activity (Rattus norvegicus [3])	Activity (Rattus norvegicus [4])	Activity [5]	Activity [6]	Activity [7]	UI [8]	IC50 (MCF7)	IC50 (HT-29 [16])	IC50 (A2780)	IC50 at 72 h [17]	selectivity ratio at 72 h [18]	selectivity ratio at 72 h [19]	selectivity ratio at 72 h [20]	Activity (Rattus norvegicus [22])	Activity (Rattus norvegicus [23])	also measured
COc1ccc2c(c1)c(CC(=O)O)c(C)n2C(=O)c1ccc(Cl)cc1 [INDOMETHACIN]		0.41 mm	0.22 mm	0.24 mm	42.25%	10%	11.33	1	22.33										Activity [9]: Toxic; Activity [10]: Toxic; Activity [11]: Toxic; Activity [12]: Toxic; Activity [13]: Toxic; Activity [14]: Toxic; Activity [15]: Toxic
COc1ccc(NC(=O)COc2ccc(N3C(=O)CSC3c3ccc(C)cc3)cc2)cc1 (stereo unspecified)	8.37 µM	0.61 mm	0.79 mm	0.73 mm	15.3%					2.47 µM	5.34 µM	4.7 µM	2.89 µM	1.17	0.54	0.61	32.7%	47.48%	
Cc1ccc(-c2cc(C(F)(F)F)nn2-c2ccc(S(N)(=O)=O)cc2)cc1 [CELECOXIB]		0.27 mm	0.34 mm	0.5 mm	61.97%	6.67%	0.67	1	8.34	15.4 µM	32.5 µM	18.1 µM						64.03%	Activity [24]: Non-Toxic; Activity [25]: Toxic; Activity [26]: Non-Toxic

The next lines start with results.

IC50 [21]	SMILES	Activity (Rattus norvegicus [1])	Activity (Rattus norvegicus [2])	Activity (Rattus norvegicus [3])	Activity (Rattus norvegicus [4])	Activity [5]	Activity [6]	Activity [7]	UI [8]	IC50 (MCF7)	IC50 (HT-29 [16])	IC50 (A2780)	IC50 at 72 h [17]	selectivity ratio at 72 h [18]	selectivity ratio at 72 h [19]	selectivity ratio at 72 h [20]	Activity (Rattus norvegicus [22])	Activity (Rattus norvegicus [23])	also measured
36.5 µM	O=C(COc1ccc(N2C(=O)CSC2c2ccccc2)cc1)Nc1ccc(Cl)cc1 (stereo unspecified)	0.54 mm	0.63 mm	0.53 mm	15.3%					5.96 µM	3.53 µM	17 µM	10.7 µM	1.79	3.02	0.63	32.7%	47.48%	
0.62 µM	COc1ccc(NC(=O)COc2ccc(N3C(=O)CSC3c3ccccc3)cc2)cc1 (stereo unspecified)	0.48 mm	0.56 mm	0.56 mm	15.3%	3.33%	0.67	1	5	1.51 µM	0.24 µM	0.67 µM	6.23 µM	4.13	25.9	9.3	32.7%	59.7%	Activity (HT-29 [27]): Active; Activity (Ehrlich [28]): Active; Activity (Ehrlich [29]): Active; Activity (Ehrlich [30]): Active; inhibition in vivo at 50 mg/kg (Ehrlich [31]): 27.4%; Activity (Ehrlich [32]): Active; Activity (HT-29 [33]): Active; Activity (HT-29 [34]): 75.8%; Activity (HT-29 [35]): 9%; Activity (HT-29 [36]): 5.3%; Activity (HT-29 [37]): 9.8%; inhibition (Sus scrofa): inactive; Activity [38]: Non-Toxic; Activity [39]: Non-Toxic; Activity [40]: Non-Toxic
